Test results published in PubChem BioAssay (NCI).
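96-well plates; 48 h exposure; 5 concentrations. Endpoints by linear interpolation between flanking doses. Not reached: highest tested concentration assigned. GI50: concentration for 50% inhibition of growth. The concentration for full growth arrest is given as TGI.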

Experiments:
Assay in all cases: DTP human tumour cell line panel, 48 h
A498 renal = test system: A498 renal
DU-145 prostate = test system: DU-145 prostate
K-562 leukemia = test system: K-562 leukemia
M14 melanoma = test system: M14 melanoma
NCI-H522 lung = test system: NCI-H522 lung
NCI/ADR-RES ovarian = test system: NCI/ADR-RES ovarian
PC-3 prostate = test system: PC-3 prostate
SR leukemia = test system: SR leukemia

SMILES: OCCNC(=S)Nc1ccc(-c2nc(N3C[C@H]4CC[C@@H](C3)O4)c3cccn3n2)cc1
- GI50 (A498 renal): < 0.01 µM
- TGI (A498 renal): 0.0307 µM
- GI50 (DU-145 prostate): 0.0987 µM
- TGI (DU-145 prostate): 24.2 µM
- GI50 (K-562 leukemia): 0.266 µM
- TGI (K-562 leukemia): > 37.6 µM
- GI50 (M14 melanoma): 0.0654 µM
- TGI (M14 melanoma): 5.93 µM
- GI50 (NCI-H522 lung): 0.029 µM
- TGI (NCI-H522 lung): 3.37 µM
- GI50 (NCI/ADR-RES ovarian): 0.172 µM
- TGI (NCI/ADR-RES ovarian): 2.16 µM
- GI50 (PC-3 prostate): 0.0284 µM
- TGI (PC-3 prostate): 8.13 µM
- GI50 (SR leukemia): 0.082 µM
- TGI (SR leukemia): > 38 µM

SMILES: Cc1c(C)n(CC(O)CNC2CCCCC2C)c2ccccc12 (configuration not stated)
- GI50 (A498 renal): 4.99 µM
- TGI (A498 renal): 19.6 µM
- GI50 (DU-145 prostate): 17.8 µM
- TGI (DU-145 prostate): 31.6 µM
- GI50 (K-562 leukemia): 3.93 µM
- TGI (K-562 leukemia): 20.1 µM
- GI50 (NCI/ADR-RES ovarian): 15.5 µM
- TGI (NCI/ADR-RES ovarian): 29.8 µM
- GI50 (PC-3 prostate): 13.4 µM
- TGI (PC-3 prostate): 26.2 µM
- GI50 (SR leukemia): 12.4 µM
- TGI (SR leukemia): 34.1 µM

SMILES: Cc1ccccc1NC(=O)N/C(N)=N/c1nc(C)c(C)s1
- GI50 (A498 renal): 0.125 µM
- TGI (A498 renal): 0.803 µM
- GI50 (DU-145 prostate): 0.481 µM
- TGI (DU-145 prostate): > 100 µM
- GI50 (K-562 leukemia): 0.0429 µM
- TGI (K-562 leukemia): > 100 µM
- GI50 (M14 melanoma): 0.121 µM
- TGI (M14 melanoma): > 100 µM
- GI50 (NCI-H522 lung): 0.0478 µM
- TGI (NCI-H522 lung): > 42.5 µM
- GI50 (NCI/ADR-RES ovarian): 0.089 µM
- TGI (NCI/ADR-RES ovarian): 15.8 µM
- GI50 (PC-3 prostate): 0.395 µM
- TGI (PC-3 prostate): > 100 µM
- GI50 (SR leukemia): 0.0438 µM
- TGI (SR leukemia): > 100 µM

SMILES: COc1ccc(C(=O)OC2C(OC3C(O)COC(O[C@H]4C[C@H]5[C@@H]6CC=C7C[C@@H](O)CC[C@]7(C)[C@H]6CC[C@]5(C)[C@H]4[C@H](C)C(=O)CCC(C)C)C3OC(=O)C(C)C)OCC(O)C2O)cc1 (some centres not stated)
- GI50 (A498 renal): 0.00395 µM
- TGI (A498 renal): 0.0161 µM
- GI50 (DU-145 prostate): 0.017 µM
- TGI (DU-145 prostate): 4.65 µM
- GI50 (K-562 leukemia): 0.0127 µM
- TGI (K-562 leukemia): 0.516 µM
- GI50 (M14 melanoma): 0.00812 µM
- TGI (M14 melanoma): 0.0389 µM
- GI50 (NCI-H522 lung): 0.0306 µM
- TGI (NCI-H522 lung): 0.273 µM
- GI50 (NCI/ADR-RES ovarian): 3.32 µM
- TGI (NCI/ADR-RES ovarian): 7.2 µM
- GI50 (PC-3 prostate): 0.00821 µM
- TGI (PC-3 prostate): 0.446 µM
- GI50 (SR leukemia): 0.0121 µM
- TGI (SR leukemia): 3.34 µM

SMILES: C[C@]12CC/C(=N\O)C[C@@H]1CC[C@@H]1[C@@H]2CC[C@]2(C)/C(=N/O)CC[C@@H]12
- GI50 (A498 renal): 47.2 µM
- TGI (A498 renal): > 100 µM
- GI50 (DU-145 prostate): 80.7 µM
- TGI (DU-145 prostate): > 100 µM
- GI50 (K-562 leukemia): 40.9 µM
- TGI (K-562 leukemia): > 100 µM
- GI50 (M14 melanoma): 23.7 µM
- TGI (M14 melanoma): 55.2 µM
- GI50 (NCI-H522 lung): 21 µM
- TGI (NCI-H522 lung): 58.3 µM
- GI50 (NCI/ADR-RES ovarian): 44.2 µM
- TGI (NCI/ADR-RES ovarian): > 100 µM
- GI50 (PC-3 prostate): 43.7 µM
- TGI (PC-3 prostate): > 100 µM
- GI50 (SR leukemia): 35 µM
- TGI (SR leukemia): > 100 µM

SMILES: CCCCCCCC(=O)SCC/C=C/[C@@H]1CC(=O)NCc2cccc(n2)C2=N[C@@](C)(CS2)C(=O)N[C@@H](C(C)C)C(=O)O1
- GI50 (A498 renal): 0.0202 µM
- TGI (A498 renal): 0.111 µM
- GI50 (DU-145 prostate): 0.0287 µM
- TGI (DU-145 prostate): > 33.3 µM
- GI50 (K-562 leukemia): 0.0829 µM
- TGI (K-562 leukemia): > 33.3 µM
- GI50 (M14 melanoma): 0.0348 µM
- TGI (M14 melanoma): > 33.3 µM
- GI50 (NCI-H522 lung): 0.0192 µM
- TGI (NCI-H522 lung): 0.845 µM
- GI50 (NCI/ADR-RES ovarian): 0.319 µM
- TGI (NCI/ADR-RES ovarian): > 33.3 µM
- GI50 (PC-3 prostate): 0.0437 µM
- TGI (PC-3 prostate): > 33.3 µM
- GI50 (SR leukemia): 0.0623 µM
- TGI (SR leukemia): > 33.3 µM

SMILES: C[C@@]1([C@H](OC(=O)c2cccc3ccccc23)C(N)=O)CO1
- GI50 (A498 renal): 16.2 µM
- TGI (A498 renal): 34 µM
- GI50 (DU-145 prostate): 1.61 µM
- TGI (DU-145 prostate): 5.64 µM
- GI50 (K-562 leukemia): 1.13 µM
- TGI (K-562 leukemia): > 37.5 µM
- GI50 (M14 melanoma): 1.36 µM
- TGI (M14 melanoma): 5.31 µM
- TGI (NCI-H522 lung): 6 µM
- GI50 (NCI/ADR-RES ovarian): 0.54 µM
- TGI (NCI/ADR-RES ovarian): 4.8 µM
- GI50 (PC-3 prostate): 3.2 µM
- TGI (PC-3 prostate): 22.8 µM

SMILES: COc1cc(-c2nn(-c3ccc(NC(=O)Nc4ccc(Cl)c(C(F)(F)F)c4)cc3)cc2-c2ccncc2)ccc1Cl
- GI50 (A498 renal): 1.41 µM
- TGI (A498 renal): 3.54 µM
- GI50 (DU-145 prostate): 2.47 µM
- TGI (DU-145 prostate): 7.52 µM
- GI50 (K-562 leukemia): 1.59 µM
- TGI (K-562 leukemia): 5.58 µM
- GI50 (M14 melanoma): 1.74 µM
- TGI (M14 melanoma): 3.63 µM
- GI50 (NCI/ADR-RES ovarian): 2.12 µM
- TGI (NCI/ADR-RES ovarian): 7.85 µM
- GI50 (PC-3 prostate): 1.67 µM
- TGI (PC-3 prostate): > 100 µM

SMILES: CC(C)(C)n1nc(C2CC2)cc1NC(=O)Nc1ccc(Cl)cc1
- TGI (A498 renal): > 100 µM
- TGI (DU-145 prostate): > 100 µM
- TGI (K-562 leukemia): > 100 µM
- TGI (M14 melanoma): > 100 µM
- TGI (NCI-H522 lung): > 100 µM
- TGI (NCI/ADR-RES ovarian): > 100 µM
- TGI (PC-3 prostate): > 100 µM

SMILES: Cc1ccc(C(=O)Nc2ccc(CN3CCN(C)CC3)c(C(F)(F)F)c2)cc1C#Cc1cnc(N)c2ccc(C#N)cc12
- GI50 (A498 renal): 0.133 µM
- TGI (A498 renal): 49.3 µM
- GI50 (DU-145 prostate): 0.0403 µM
- TGI (DU-145 prostate): 7.39 µM
- GI50 (M14 melanoma): 0.0234 µM
- TGI (M14 melanoma): 2.34 µM
- GI50 (NCI-H522 lung): 0.605 µM
- TGI (NCI-H522 lung): > 25.2 µM
- GI50 (NCI/ADR-RES ovarian): 2.03 µM
- TGI (NCI/ADR-RES ovarian): 10.1 µM
- GI50 (PC-3 prostate): 2.09 µM
- TGI (PC-3 prostate): 13.8 µM
- GI50 (SR leukemia): 0.135 µM

SMILES: COc1ccc(NC(=O)COc2ccccc2)c(C(N)=O)c1
- GI50 (A498 renal): 0.757 µM
- TGI (A498 renal): 8.38 µM
- GI50 (DU-145 prostate): 2.31 µM
- TGI (DU-145 prostate): > 62.2 µM
- GI50 (K-562 leukemia): 0.348 µM
- TGI (K-562 leukemia): > 100 µM
- GI50 (M14 melanoma): 0.499 µM
- TGI (M14 melanoma): > 100 µM
- GI50 (NCI-H522 lung): 0.812 µM
- TGI (NCI-H522 lung): 13.3 µM
- GI50 (NCI/ADR-RES ovarian): 0.574 µM
- TGI (NCI/ADR-RES ovarian): 11.9 µM
- GI50 (PC-3 prostate): 0.712 µM
- TGI (PC-3 prostate): > 100 µM
- GI50 (SR leukemia): 0.466 µM
- TGI (SR leukemia): > 50.2 µM

SMILES: C=C(c1ccc(OC)c(/C=C/C(=O)c2cc(OC)c(OC)c(OC)c2)c1)c1cc(OC)c(OC)c(OC)c1
- GI50 (A498 renal): 1.48 µM
- TGI (A498 renal): 3.11 µM
- GI50 (DU-145 prostate): 1.32 µM
- TGI (DU-145 prostate): 3.11 µM
- GI50 (K-562 leukemia): 0.922 µM
- TGI (K-562 leukemia): 10.7 µM
- GI50 (M14 melanoma): 1.59 µM
- TGI (M14 melanoma): 4.43 µM
- GI50 (NCI-H522 lung): 1.1 µM
- TGI (NCI-H522 lung): 5.63 µM
- GI50 (NCI/ADR-RES ovarian): 0.936 µM
- TGI (NCI/ADR-RES ovarian): 4.85 µM
- GI50 (PC-3 prostate): 1.3 µM
- TGI (PC-3 prostate): 5.31 µM
- GI50 (SR leukemia): 0.46 µM
- TGI (SR leukemia): 8.79 µM

SMILES: Nc1nc(=O)c2[nH]cnc2n1O
- TGI (A498 renal): > 100 µM
- TGI (DU-145 prostate): > 100 µM
- TGI (K-562 leukemia): > 100 µM
- TGI (M14 melanoma): > 100 µM
- TGI (NCI-H522 lung): > 100 µM
- TGI (NCI/ADR-RES ovarian): > 100 µM
- TGI (PC-3 prostate): > 100 µM
- TGI (SR leukemia): > 100 µM

SMILES: Oc1ccccc1/C=N/Nc1nc2ccccc2s1
- GI50 (A498 renal): 32.4 µM
- TGI (A498 renal): > 100 µM
- GI50 (DU-145 prostate): 9.35 µM
- TGI (DU-145 prostate): > 100 µM
- GI50 (K-562 leukemia): 6.48 µM
- TGI (K-562 leukemia): > 100 µM
- GI50 (NCI-H522 lung): 4.74 µM
- TGI (NCI-H522 lung): > 100 µM
- GI50 (NCI/ADR-RES ovarian): 6.1 µM
- TGI (NCI/ADR-RES ovarian): > 100 µM
- GI50 (PC-3 prostate): 11 µM
- TGI (PC-3 prostate): > 100 µM
- GI50 (SR leukemia): 7.71 µM
- TGI (SR leukemia): > 100 µM

SMILES: COc1ccc(/C=C(/C(=O)N2CCN(c3ccc(C)cc3)CC2)c2cc(OC)c(OC)c(OC)c2)cc1N
- GI50 (A498 renal): 0.0571 µM
- TGI (A498 renal): 2.3 µM
- GI50 (DU-145 prostate): 0.307 µM
- TGI (DU-145 prostate): > 76.3 µM
- GI50 (K-562 leukemia): 0.222 µM
- TGI (K-562 leukemia): > 100 µM
- GI50 (M14 melanoma): 0.247 µM
- TGI (M14 melanoma): 2.48 µM
- GI50 (NCI-H522 lung): 0.168 µM
- TGI (NCI-H522 lung): > 100 µM
- GI50 (NCI/ADR-RES ovarian): 0.293 µM
- TGI (NCI/ADR-RES ovarian): 21.7 µM
- GI50 (PC-3 prostate): 0.312 µM
- TGI (PC-3 prostate): > 100 µM
- GI50 (SR leukemia): 0.238 µM
- TGI (SR leukemia): > 100 µM
